Reference: the NIST ThermoML archive (doi:10.1021/je034290l)

How the values were obtained:
[1] = Liquid
[2] = refractive index (Na D-line) (dimensionless); conditions: 318.15 K; 101.33 kPa; Liquid; Standard Abbe refractometry

COC(C)=O [methyl ethanoate]
[1]
Conditions	vapor or sublimation pressure [kPa]
305.21 K	39.85
305.85 K	41.28
306.84 K	42.46
307.84 K	44.04
308.13 K	45.37
308.75 K	46.97
309.72 K	48.14
310.17 K	49.41
311.19 K	50.42
311.59 K	51.81
312.76 K	53.53
313.38 K	54.58
313.74 K	55.9
314.18 K	57.49
314.88 K	58.59
315.56 K	60.05
316.06 K	61.43
316.57 K	62.5
317.05 K	63.9
318.34 K	66.51
318.69 K	67.81
319.37 K	69.23
319.93 K	70.45
320.11 K	71.01
320.34 K	71.9
320.65 K	73.35
321.34 K	74.58
321.46 K	75.27
321.72 K	76.13
322.07 K	77.22
322.36 K	77.87
322.62 K	78.83
323.07 K	80.15
323.49 K	81.23
324.29 K	82.59
324.58 K	83.84
324.95 K	85.23
325.33 K	86.76
325.71 K	87.86
326.25 K	89.23
326.63 K	90.98
327.08 K	92.06
327.54 K	93.46
328 K	94.82
328.17 K	96.1
328.96 K	97.67
329.38 K	99.14
329.55 K	100.18
329.86 K	101.32
330.09 K	102.6
330.43 K	104.14
330.97 K	105.19
331.43 K	106.75
331.76 K	107.92
332.06 K	109.42
332.52 K	110.71
332.77 K	112.16
333.1 K	113.39
333.6 K	114.47
333.94 K	115.87
334.06 K	117.43
334.27 K	118.52
334.73 K	120.12
335.06 K	121.46
335.23 K	122.57
335.73 K	123.95
336.07 K	125.35
336.48 K	126.88
336.86 K	127.85
337.19 K	129.37
337.53 K	130.87
337.78 K	131.93
337.9 K	133.48
338.15 K	134.72
338.66 K	136.16
338.82 K	137.37
339.07 K	138.56
339.41 K	140.07
339.66 K	141.45
339.95 K	142.53
340.33 K	144.04
340.49 K	145.51
340.95 K	146.43
341.08 K	147.88
341.45 K	149.13
341.79 K	150.58
342 K	151.93
342.37 K	153.34
342.46 K	154.61
342.85 K	155.92
343.21 K	157.52
343.36 K	158.57
343.46 K	160.01
343.67 K	161.1
344.09 K	162.7
344.46 K	164.2
344.67 K	165.28
344.88 K	166.78
345.05 K	168.02
345.26 K	169.24
345.47 K	170.37
345.84 K	171.92
345.96 K	173.2

Conditions	mass density [kg/m3]
[1], 318.15 K, 101.33 kPa	900.19

Conditions	refractive index
[2]	1.3486
